Data: ChEMBL document CHEMBL2073885, “Azelastine and flezelastine as reversing agents of multidrug resistance: pharmacological and molecular studies” (Biochem Pharmacol, 1995)

What was measured:
Format in all cases: functional, cell-based
[1] = molecular target: T1, ATP-dependent translocase ABCB1 (Rattus norvegicus, UniProt P43245); experiment: TP_TRANSPORTER: increase in Doxorubicin intracellular accumulation (Doxorubicin: 17.2 uM, Flezelastine: 3 uM) in C6 1V cells
[2] = molecular target: Multidrug resistance protein 1a (Rattus norvegicus) (UniProt Q6PSM0); experiment: TP_TRANSPORTER: increase in Doxorubicin intracellular accumulation (Doxorubicin: 17.2 uM, Flezelastine: 10 uM) in C6 0.5 cells
[3] = molecular target: Multidrug resistance protein 1a (Rattus norvegicus) (UniProt Q6PSM0); experiment: TP_TRANSPORTER: increase in Doxorubicin intracellular accumulation (Doxorubicin: 17.2 uM, Azelastine: 30 uM) in C6 0.5 cells
[4] = molecular target: T1, ATP-dependent translocase ABCB1; experiment: TP_TRANSPORTER: increase in Doxorubicin intracellular accumulation (Doxorubicin: 17.2 uM, Azelastine: 10 uM) in C6 1V cells

Multidrug resistance protein 1a (Rattus norvegicus), sequence (Q6PSM0 as listed by the source): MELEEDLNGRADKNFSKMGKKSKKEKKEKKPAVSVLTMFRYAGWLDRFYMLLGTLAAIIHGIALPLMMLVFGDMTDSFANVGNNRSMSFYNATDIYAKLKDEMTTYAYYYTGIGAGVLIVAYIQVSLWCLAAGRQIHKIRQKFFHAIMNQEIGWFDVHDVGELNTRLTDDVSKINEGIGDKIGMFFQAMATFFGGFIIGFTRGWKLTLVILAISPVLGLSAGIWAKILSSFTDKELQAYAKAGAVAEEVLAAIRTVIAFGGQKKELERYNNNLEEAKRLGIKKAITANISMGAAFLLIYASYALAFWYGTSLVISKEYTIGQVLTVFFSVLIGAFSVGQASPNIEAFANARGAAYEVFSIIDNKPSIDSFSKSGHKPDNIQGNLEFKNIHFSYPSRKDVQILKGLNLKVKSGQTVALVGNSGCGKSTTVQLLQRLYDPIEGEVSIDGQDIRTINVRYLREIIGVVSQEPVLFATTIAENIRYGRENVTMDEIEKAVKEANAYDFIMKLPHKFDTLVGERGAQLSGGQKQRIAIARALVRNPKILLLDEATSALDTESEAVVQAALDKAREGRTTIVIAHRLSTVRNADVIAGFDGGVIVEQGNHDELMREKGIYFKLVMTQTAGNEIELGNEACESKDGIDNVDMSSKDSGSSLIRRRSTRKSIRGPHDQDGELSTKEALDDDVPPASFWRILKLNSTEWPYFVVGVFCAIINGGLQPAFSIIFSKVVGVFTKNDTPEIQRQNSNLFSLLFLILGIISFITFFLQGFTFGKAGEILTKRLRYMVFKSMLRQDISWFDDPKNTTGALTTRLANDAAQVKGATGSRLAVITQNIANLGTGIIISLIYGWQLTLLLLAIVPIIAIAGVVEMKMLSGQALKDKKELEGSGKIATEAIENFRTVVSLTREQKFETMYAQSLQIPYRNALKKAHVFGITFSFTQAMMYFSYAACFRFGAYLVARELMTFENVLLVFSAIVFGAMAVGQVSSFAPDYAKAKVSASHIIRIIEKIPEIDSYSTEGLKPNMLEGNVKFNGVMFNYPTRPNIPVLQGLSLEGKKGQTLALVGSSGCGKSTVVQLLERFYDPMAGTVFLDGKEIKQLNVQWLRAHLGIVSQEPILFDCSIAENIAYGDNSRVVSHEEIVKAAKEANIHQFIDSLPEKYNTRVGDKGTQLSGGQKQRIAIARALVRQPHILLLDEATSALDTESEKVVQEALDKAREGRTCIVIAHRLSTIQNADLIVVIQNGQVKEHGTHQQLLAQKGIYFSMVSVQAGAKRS
T1 sequence (P43245 whole entry): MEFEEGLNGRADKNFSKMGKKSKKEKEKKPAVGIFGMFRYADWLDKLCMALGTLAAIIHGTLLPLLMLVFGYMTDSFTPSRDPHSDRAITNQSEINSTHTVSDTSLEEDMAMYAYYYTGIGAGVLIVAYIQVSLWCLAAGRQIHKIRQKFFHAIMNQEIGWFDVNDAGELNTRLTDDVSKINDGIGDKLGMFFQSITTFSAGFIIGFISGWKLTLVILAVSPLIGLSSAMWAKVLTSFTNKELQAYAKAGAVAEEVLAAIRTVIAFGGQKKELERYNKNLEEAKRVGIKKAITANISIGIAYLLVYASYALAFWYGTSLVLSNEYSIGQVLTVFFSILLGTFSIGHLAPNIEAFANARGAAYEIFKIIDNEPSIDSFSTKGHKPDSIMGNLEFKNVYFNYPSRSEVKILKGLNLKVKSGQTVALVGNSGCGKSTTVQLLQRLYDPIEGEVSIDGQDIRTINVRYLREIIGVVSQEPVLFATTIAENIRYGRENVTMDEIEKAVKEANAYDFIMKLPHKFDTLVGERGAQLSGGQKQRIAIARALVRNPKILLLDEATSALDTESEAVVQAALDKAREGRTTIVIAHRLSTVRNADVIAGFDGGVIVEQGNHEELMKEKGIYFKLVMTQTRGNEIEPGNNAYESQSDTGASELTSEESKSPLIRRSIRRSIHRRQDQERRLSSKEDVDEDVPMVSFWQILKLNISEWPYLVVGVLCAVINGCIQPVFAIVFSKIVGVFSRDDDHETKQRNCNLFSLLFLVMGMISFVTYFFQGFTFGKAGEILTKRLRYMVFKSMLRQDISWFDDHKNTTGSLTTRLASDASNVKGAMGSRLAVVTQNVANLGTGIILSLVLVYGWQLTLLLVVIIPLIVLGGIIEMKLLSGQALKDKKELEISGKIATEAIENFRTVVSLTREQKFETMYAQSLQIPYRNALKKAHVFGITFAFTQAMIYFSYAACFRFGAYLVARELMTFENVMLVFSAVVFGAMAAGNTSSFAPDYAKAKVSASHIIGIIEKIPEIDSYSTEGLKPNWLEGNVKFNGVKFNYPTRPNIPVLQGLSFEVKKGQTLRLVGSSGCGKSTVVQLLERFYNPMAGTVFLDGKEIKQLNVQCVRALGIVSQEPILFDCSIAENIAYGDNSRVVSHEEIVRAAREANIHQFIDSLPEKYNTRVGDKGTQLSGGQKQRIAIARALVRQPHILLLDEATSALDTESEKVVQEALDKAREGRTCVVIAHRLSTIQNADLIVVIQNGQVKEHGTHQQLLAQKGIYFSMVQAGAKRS

| Activity [1] | Activity [2] | Activity [3] | Activity [4] | SMILES |
| --- | --- | --- | --- | --- |
| inhibitor [+] | inhibitor [+] |  |  | O=c1c2ccccc2c(Cc2ccc(F)cc2)nn1C1CCCN(CCc2ccccc2)CC1 (centres undefined) [FLEZELASTINE] |
|  |  | inhibitor [+] | inhibitor [+] | CN1CCCC(n2nc(Cc3ccc(Cl)cc3)c3ccccc3c2=O)CC1 (centres undefined) [AZELASTINE] |
